# BindingDB's records for PubMed 11356907 (Institut De Recherches Servier, 2001)
# What was measured:
# [1] = biological target: Norepinephrine transporter (Rattus norvegicus, UniProt Q9JIA2)
# [2] = biological target: T1, Alpha-1B adrenergic receptor (Homo sapiens, UniProt P35368)
# T1 sequence (P35368 whole entry): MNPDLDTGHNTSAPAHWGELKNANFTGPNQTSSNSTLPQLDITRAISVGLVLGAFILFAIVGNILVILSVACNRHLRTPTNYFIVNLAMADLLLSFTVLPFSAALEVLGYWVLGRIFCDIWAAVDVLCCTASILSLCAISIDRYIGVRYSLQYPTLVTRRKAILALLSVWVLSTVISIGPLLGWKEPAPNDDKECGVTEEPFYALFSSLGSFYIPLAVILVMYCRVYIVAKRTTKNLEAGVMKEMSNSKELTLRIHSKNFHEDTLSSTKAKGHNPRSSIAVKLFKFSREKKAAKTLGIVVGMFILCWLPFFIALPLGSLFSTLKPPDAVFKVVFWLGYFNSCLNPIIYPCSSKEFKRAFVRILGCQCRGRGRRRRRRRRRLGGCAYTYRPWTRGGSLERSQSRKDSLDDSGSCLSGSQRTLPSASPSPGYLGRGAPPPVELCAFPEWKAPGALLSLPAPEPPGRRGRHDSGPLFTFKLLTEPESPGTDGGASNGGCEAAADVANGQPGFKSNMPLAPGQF
# [3] = biological target: T2, Alpha-2C adrenergic receptor (Homo sapiens, UniProt P18825)
# T2 sequence (P18825 whole entry): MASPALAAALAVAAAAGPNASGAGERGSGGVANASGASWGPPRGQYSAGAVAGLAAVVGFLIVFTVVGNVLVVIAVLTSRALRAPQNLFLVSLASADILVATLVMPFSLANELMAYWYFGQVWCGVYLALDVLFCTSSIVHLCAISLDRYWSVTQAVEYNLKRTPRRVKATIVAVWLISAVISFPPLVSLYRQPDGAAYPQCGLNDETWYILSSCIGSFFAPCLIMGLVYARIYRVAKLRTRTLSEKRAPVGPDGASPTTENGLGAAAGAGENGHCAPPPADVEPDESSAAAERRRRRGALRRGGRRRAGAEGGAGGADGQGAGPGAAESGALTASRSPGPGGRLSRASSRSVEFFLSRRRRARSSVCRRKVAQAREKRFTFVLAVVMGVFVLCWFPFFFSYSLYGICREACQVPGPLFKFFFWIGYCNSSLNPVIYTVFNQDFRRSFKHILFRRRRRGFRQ
# [4] = biological target: T3, Amine oxidase [flavin-containing] B (Rattus norvegicus, UniProt P19643)
# T3 sequence (P19643 whole entry): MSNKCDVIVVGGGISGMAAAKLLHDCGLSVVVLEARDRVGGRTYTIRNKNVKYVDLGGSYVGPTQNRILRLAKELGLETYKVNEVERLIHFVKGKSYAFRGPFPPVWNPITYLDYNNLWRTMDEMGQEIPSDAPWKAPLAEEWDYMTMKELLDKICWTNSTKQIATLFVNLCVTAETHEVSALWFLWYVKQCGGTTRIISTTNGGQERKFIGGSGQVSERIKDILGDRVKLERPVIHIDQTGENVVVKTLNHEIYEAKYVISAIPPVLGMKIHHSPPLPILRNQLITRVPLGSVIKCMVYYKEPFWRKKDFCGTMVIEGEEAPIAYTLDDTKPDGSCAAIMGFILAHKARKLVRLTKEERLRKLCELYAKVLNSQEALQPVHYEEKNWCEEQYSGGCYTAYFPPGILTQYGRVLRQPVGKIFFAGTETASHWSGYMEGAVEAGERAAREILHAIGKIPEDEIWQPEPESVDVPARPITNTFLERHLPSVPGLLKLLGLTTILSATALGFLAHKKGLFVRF
# [5] = biological target: T4, Alpha-1A adrenergic receptor (Homo sapiens, UniProt P35348)
# T4 sequence (P35348 whole entry): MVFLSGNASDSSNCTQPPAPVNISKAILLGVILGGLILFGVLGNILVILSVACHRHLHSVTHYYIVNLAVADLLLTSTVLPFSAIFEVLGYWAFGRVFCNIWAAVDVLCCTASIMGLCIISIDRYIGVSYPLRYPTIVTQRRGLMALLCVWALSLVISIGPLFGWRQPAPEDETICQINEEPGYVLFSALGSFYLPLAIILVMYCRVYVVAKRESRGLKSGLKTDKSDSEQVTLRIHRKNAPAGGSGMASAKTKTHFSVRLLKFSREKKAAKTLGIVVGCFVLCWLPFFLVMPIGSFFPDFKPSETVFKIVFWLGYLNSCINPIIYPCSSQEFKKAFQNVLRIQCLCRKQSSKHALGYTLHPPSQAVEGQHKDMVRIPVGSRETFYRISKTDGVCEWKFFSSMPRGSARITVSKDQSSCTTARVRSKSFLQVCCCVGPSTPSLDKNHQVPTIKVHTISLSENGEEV
# [6] = biological target: Beta-2 adrenergic receptor (Homo sapiens, UniProt P07550)
# [7] = biological target: T5, Alpha-2A adrenergic receptor (Homo sapiens, UniProt P08913)
# T5 sequence (P08913 whole entry): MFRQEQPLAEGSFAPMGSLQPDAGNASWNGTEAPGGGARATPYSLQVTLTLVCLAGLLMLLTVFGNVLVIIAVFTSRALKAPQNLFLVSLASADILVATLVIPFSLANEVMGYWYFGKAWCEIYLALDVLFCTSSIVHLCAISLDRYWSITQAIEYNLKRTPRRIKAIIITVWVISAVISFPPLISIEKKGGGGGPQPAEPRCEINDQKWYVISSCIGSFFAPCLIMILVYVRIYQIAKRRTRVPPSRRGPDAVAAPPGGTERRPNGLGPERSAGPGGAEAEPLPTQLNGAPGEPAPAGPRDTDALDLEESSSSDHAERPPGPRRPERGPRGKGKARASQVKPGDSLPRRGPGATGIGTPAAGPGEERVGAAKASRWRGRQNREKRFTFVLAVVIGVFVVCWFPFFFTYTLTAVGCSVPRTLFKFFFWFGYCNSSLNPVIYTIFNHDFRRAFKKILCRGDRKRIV
# [8] = biological target: Sodium-dependent noradrenaline transporter (Homo sapiens, UniProt P23975)
# [9] = biological target: D(2) dopamine receptor (Rattus norvegicus, UniProt P61169)
# [10] = biological target: T6, Alpha-2C adrenergic receptor (Rattus norvegicus, UniProt P22086)
# T6 sequence (P22086 whole entry): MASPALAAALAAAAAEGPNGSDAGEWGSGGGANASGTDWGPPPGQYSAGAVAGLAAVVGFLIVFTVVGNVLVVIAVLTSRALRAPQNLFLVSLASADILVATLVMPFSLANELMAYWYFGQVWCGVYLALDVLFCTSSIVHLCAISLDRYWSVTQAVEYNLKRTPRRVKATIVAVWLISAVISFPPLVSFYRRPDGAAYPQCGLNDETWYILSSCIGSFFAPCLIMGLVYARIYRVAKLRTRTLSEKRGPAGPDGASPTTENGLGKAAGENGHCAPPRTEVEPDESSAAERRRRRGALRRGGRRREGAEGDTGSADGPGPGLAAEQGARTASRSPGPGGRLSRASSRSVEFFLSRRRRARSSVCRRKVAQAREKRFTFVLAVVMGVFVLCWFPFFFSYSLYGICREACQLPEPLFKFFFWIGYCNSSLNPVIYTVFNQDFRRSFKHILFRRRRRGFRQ
# [11] = biological target: D(2) dopamine receptor (Homo sapiens, UniProt P14416)
# [12] = biological target: T7, Amine oxidase [flavin-containing] A (Rattus norvegicus, UniProt P21396)
# T7 sequence (P21396 whole entry): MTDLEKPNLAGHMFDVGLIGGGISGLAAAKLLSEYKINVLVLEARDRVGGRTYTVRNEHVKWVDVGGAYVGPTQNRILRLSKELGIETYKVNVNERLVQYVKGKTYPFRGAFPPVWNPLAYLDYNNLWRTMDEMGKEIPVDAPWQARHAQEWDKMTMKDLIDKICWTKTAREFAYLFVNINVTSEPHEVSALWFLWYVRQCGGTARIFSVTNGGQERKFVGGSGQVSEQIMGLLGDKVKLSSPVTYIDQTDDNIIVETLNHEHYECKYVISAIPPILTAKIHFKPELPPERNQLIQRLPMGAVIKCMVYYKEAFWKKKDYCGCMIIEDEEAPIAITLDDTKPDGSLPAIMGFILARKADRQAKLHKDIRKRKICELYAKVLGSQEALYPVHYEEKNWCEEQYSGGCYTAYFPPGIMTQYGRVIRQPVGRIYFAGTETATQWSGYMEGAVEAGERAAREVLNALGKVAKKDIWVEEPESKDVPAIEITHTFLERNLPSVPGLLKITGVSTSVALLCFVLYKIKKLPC
# [13] = biological target: T8, Alpha-1D adrenergic receptor (Homo sapiens, UniProt P25100)
# T8 sequence (P25100 whole entry): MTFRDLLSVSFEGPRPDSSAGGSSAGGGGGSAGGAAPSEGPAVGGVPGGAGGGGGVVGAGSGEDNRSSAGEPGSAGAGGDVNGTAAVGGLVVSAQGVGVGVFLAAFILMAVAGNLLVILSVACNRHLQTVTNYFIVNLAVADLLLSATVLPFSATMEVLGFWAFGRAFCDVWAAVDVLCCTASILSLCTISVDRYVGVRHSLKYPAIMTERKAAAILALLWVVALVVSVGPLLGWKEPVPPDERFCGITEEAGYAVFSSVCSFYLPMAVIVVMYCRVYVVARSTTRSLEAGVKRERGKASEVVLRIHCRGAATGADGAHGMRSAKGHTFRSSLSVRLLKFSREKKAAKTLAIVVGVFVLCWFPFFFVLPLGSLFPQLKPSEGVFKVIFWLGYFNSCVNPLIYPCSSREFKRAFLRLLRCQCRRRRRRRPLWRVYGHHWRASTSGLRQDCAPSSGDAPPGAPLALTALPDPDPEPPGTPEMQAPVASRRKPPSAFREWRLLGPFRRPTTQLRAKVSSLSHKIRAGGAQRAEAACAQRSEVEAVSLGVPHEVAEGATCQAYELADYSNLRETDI
# Chain of Beta-2 adrenergic receptor (P07550 whole entry): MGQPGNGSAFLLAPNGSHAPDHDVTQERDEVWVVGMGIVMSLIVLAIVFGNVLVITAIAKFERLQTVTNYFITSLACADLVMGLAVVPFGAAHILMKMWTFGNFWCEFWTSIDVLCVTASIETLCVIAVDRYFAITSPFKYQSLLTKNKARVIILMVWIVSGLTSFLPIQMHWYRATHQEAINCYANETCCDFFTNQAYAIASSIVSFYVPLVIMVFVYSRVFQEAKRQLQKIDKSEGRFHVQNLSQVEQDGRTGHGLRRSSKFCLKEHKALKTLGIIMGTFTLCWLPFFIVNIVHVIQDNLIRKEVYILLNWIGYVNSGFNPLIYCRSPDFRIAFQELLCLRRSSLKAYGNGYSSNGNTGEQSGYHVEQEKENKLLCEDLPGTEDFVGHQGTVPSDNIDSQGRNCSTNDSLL
# Chain of Sodium-dependent noradrenaline transporter (P23975 whole entry): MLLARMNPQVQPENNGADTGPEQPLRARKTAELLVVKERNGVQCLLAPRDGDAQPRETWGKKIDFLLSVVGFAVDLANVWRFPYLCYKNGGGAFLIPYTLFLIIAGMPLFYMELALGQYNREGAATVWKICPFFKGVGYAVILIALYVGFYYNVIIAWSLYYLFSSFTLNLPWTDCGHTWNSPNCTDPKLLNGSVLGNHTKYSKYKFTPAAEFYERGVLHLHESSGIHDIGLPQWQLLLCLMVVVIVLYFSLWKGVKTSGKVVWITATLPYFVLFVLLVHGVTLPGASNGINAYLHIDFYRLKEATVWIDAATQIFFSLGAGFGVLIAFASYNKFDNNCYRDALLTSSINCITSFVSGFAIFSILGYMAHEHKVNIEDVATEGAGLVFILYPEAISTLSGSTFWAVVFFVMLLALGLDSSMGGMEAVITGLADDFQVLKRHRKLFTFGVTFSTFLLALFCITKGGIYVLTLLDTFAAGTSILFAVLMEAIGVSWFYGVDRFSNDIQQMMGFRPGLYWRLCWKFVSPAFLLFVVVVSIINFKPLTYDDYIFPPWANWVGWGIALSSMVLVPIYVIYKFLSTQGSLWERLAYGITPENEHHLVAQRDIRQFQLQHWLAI
# Chain of D(2) dopamine receptor (Homo sapiens, UniProt P14416) (P14416 whole entry): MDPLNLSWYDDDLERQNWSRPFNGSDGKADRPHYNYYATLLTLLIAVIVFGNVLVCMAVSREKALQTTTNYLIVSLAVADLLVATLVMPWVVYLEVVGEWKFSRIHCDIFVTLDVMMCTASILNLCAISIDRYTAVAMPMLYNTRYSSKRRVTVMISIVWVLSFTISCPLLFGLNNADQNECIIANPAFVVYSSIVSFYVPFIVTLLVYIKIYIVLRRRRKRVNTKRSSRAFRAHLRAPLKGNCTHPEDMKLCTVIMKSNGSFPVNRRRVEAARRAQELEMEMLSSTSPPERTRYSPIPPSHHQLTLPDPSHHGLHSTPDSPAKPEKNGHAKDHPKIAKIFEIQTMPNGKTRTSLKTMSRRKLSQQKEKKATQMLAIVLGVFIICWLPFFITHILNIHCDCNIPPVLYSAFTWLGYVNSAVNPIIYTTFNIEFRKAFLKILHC
# Chain of D(2) dopamine receptor (Rattus norvegicus, UniProt P61169) (P61169 whole entry): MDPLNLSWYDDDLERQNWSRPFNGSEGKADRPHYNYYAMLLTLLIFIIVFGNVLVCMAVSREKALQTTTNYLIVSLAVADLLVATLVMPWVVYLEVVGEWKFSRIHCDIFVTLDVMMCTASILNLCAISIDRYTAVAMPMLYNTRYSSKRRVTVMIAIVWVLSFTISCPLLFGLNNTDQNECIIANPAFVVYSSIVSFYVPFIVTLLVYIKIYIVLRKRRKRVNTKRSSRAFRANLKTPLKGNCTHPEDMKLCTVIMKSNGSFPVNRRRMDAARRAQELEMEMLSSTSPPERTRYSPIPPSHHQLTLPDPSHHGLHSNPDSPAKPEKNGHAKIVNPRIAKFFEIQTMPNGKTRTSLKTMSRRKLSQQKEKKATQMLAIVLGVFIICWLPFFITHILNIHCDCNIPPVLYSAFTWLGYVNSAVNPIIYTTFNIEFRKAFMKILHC
structure (smiles),measurement,setting,value
c1cnc(N2CCN(Cc3ccc4c(c3)OCO4)CC2)nc1 [NSC_4850],Ki,[1],> 10000 nM
same,Ki,[2],6170 nM
same,Ki,[3],69.2 nM
same,Ki,[4],> 10000 nM
same,Ki,[5],813 nM
same,Ki,[6],> 10000 nM
same,Ki,[7],89.1 nM
same,Ki,[8],> 10000 nM
same,Ki,[9],182 nM
same,Ki,[10],437 nM
same,Ki,[11],132 nM
same,Ki,[12],> 10000 nM
same,Ki,[13],219 nM
